Assay [1] has as its system freely-feeding rats. As to conditions: central administration, 4 hour time period; cited from earlier work.
The test system of assay [2] is rat. In words: Rat sleep/EEG studies. The assay is classed as in vivo. The note with it: central administration at the onset of the normal sleep period. From the text:
Therefore antagonists of its receptor may be useful in the treatment of sleep disorders including insomnia.

In the case of “orexin-A: ligand for the orexin-1 receptor, an agonist of the orexin receptors; 33-residue peptide, sequence in b167 (QPLPDCCRQKTCSCRLYELLHGAGNHAAGILTL; not fully specified; Orexin-A; UniProt O43612 34-66, looked up)”, the “increase in food intake over control rats receiving vehicle” value in assay [1] is given as “approximately four-fold”. Further, the “arousal (sleep/EEG)” value in assay [2] is reported as “dose-related increase in arousal”.

The record behind these values is US20040192673A1, “N-aroyl cyclic amine derivatives as orexin receptor antagonists” (priority 2001, published 2004).
